# pEC50: −log10 of the molar value.
# Legend:
# [1] = system: chloroquine-resistant Dd2 Plasmodium falciparum parasites; experiment: SYBR Green I antiplasmodial assay against chloroquine-resistant Dd2 parasites; type: cell-based; details: DD2, read-out: EC50 against Dd2
# [2] = system: 3D7 (wild-type) parasites; experiment: Antiplasmodial dose-response against 3D7; type: cell-based; details: Plasmodium falciparum, 3D7, read-out: EC50 against 3D7
smiles,measurement,setting,value
COC(=O)[C@H]1[C@H]2C[C@@H]3c4[nH]c5cc(OC)ccc5c4CCN3C[C@H]2C[C@@H](OC(=O)c2cc(OC)c(OC)c(OC)c2)[C@@H]1OC [reserpine],pEC50,[1],< 4.00
same,pEC50,[2],< 4.00
